Active and inactive are the calls of the source. No cut-off for these calls is given here.
Columns and labels:
[1] = Toxicity in Wistar Han rat assessed as tolerability at 10 mg/kg, po administered for 7 days and measured on day 7; type: organism-based; settings: in vivo, 168 h, time 7 day
[2] = target: Cytochrome P450 2D6 (Homo sapiens, UniProt P10635); test: Inhibition of CYP2D6 (unknown origin); type: ADME
[3] = target: Cytochrome P450 3A4 (Homo sapiens, UniProt P08684); test: Inhibition of CYP3A4 (unknown origin); type: ADME
Cytochrome P450 3A4, sequence (P08684 whole entry): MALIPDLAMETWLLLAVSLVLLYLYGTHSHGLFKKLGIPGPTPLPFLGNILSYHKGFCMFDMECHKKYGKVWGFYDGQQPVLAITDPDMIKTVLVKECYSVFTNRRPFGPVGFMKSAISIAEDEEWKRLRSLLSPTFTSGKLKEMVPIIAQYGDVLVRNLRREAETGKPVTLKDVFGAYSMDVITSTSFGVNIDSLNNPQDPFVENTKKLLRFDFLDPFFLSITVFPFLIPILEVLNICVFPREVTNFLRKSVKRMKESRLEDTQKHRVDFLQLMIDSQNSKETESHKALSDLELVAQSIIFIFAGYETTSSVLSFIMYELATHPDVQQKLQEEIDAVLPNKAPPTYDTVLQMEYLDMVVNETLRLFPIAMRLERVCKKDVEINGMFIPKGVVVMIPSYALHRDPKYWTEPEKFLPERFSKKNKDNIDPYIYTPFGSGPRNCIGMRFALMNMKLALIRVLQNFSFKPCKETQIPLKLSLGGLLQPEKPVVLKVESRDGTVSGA

[4] = Toxicity in Wistar Han rat assessed as decrease in skin elasticity at >= 100 mg/kg, po administered for 7 days and measured on day 7; type: organism-based; settings: in vivo, 168 h, time 7 day
[5] = Clearance in Sprague-Dawley rat at 8.6 mg/kg, po or 0.5 mg/kg, iv; type: ADME, organism-based; settings: in vivo
[6] = Mutagenicity in Escherichia coli WP2uvrA in presence of S9 fraction by ames test; type: toxicity, subcellular
[7] = target: T1, Cytochrome P450 1A2 (Homo sapiens, UniProt P05177); test: Inhibition of CYP1A2 (unknown origin); type: ADME
T1 sequence (P05177 whole entry): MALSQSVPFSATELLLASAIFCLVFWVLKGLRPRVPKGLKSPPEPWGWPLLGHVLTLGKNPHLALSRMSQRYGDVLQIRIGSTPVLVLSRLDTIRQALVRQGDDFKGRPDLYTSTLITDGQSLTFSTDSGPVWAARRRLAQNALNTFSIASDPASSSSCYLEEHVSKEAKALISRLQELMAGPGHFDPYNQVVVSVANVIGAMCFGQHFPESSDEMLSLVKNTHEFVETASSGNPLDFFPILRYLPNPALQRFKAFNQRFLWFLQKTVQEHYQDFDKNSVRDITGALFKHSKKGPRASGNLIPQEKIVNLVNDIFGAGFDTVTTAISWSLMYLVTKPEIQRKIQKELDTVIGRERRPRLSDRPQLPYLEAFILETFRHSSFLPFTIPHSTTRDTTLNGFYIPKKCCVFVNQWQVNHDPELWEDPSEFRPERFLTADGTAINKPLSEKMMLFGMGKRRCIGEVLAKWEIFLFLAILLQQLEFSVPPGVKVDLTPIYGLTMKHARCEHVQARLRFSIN

[8] = Mutagenicity in Salmonella typhimurium TA100 by ames test; type: toxicity; settings: salmonella enterica subsp. enterica serovar typhimurium
[9] = Toxicity in Wistar Han rat assessed as decrease in activity at >= 100 mg/kg, po administered for 7 days and measured on day 7; type: organism-based; settings: in vivo, 168 h, time 7 day
[10] = Toxicity in Wistar Han rat assessed as irregular breathing at >= 100 mg/kg, po administered for 7 days and measured on day 7; type: organism-based; settings: in vivo, 168 h, time 7 day
[11] = Mutagenicity in Escherichia coli WP2uvrA by ames test; type: toxicity
[12] = Oral bioavailability in C57 mouse at 3 mg/kg; type: ADME, organism-based; settings: in vivo
[13] = Inhibition of Wnt/beta-catenin (unknown origin) expressed in human HEK293 cells expressing MSRII transfected with DNA-LF2K incubated for 24 hrs by luciferase reporter gene assay; settings: HEK293, 24 h
[14] = Toxicity in Wistar Han rat assessed as abnormal watery fecal consistency at >= 100 mg/kg, po administered for 7 days and measured on day 7; type: organism-based; settings: in vivo, 168 h, time 7 day
[15] = Half life in Sprague-Dawley rat at 8.6 mg/kg, po or 0.5 mg/kg, iv; type: ADME, organism-based; settings: in vivo
[16] = Volume of distribution in C57 mouse at 3 mg/kg, po or 1 mg/kg, iv; type: ADME, organism-based; settings: in vivo
[17] = Toxicity in Wistar Han rat assessed as tolerability at >= 100 mg/kg, po administered for 7 days and measured on day 7; type: organism-based; settings: in vivo, 168 h, time 7 day
[18] = Oral bioavailability in Beagle dog at 2 mg/kg; type: ADME, organism-based, Canis lupus familiaris; settings: in vivo
[19] = Dose normalised AUC in C57 mouse at 3 mg/kg, po; type: ADME, organism-based; settings: in vivo
[20] = target: T2, Poly [ADP-ribose] polymerase tankyrase-1 (Homo sapiens, UniProt O95271); test: Inhibition of human TNKS1 incubated for 1 to 2 hrs by fluorescence polarization assay
T2 sequence (O95271 whole entry): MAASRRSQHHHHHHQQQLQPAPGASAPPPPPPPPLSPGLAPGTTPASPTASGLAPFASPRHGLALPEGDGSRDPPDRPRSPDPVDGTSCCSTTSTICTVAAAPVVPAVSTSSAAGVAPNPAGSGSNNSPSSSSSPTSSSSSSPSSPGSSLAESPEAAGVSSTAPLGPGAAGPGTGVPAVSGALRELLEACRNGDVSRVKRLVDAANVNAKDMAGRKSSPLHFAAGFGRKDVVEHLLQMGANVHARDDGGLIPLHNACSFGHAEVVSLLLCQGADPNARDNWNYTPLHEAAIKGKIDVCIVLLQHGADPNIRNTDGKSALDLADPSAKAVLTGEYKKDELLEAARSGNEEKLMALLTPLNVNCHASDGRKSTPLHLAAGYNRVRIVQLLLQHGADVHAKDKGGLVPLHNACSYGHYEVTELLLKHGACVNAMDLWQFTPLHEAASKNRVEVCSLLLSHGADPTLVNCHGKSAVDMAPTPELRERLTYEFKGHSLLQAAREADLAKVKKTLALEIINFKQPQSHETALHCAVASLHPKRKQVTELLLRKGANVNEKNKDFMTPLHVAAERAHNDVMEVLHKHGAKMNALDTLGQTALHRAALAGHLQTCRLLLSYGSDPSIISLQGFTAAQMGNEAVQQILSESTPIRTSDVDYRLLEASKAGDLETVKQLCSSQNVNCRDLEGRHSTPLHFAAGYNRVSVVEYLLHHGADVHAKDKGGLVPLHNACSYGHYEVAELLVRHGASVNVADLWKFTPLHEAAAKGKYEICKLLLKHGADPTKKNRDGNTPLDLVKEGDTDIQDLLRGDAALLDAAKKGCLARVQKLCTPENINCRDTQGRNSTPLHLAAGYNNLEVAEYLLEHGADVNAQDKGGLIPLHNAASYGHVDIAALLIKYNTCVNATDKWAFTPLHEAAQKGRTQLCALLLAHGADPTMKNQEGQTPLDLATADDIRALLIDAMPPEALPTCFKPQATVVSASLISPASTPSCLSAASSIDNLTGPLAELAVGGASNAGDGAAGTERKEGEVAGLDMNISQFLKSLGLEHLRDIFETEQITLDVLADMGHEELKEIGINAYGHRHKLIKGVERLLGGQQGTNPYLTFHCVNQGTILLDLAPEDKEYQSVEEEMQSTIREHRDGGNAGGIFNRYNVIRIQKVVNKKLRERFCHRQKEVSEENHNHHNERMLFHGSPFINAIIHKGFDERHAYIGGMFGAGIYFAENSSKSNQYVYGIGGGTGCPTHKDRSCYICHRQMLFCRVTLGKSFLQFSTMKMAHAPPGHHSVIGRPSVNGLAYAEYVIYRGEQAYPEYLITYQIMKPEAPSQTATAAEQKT

[21] = target: Cytochrome P450 2C19 (Homo sapiens, UniProt P33261); test: Inhibition of CYP2C19 (unknown origin); type: ADME
Cytochrome P450 2C19, sequence (P33261 whole entry): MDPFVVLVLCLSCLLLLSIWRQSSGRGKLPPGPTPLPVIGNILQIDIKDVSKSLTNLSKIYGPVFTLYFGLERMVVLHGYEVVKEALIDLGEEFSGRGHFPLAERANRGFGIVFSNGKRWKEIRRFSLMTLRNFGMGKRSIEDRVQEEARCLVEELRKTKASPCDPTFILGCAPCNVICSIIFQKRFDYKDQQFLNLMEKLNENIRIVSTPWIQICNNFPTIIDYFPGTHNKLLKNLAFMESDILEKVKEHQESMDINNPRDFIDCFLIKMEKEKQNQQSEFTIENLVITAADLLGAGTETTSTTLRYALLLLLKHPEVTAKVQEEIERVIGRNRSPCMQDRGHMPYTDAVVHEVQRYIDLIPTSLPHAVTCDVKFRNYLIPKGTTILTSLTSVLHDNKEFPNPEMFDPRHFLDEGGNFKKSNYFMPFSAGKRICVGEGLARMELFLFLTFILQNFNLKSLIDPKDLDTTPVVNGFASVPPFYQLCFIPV

[22] = system: NCI-H292; test: Antitumor activity against human NCI-H292 cells xenografted in BALB/c mouse assessed as reduction in tumor growth at 3 mg/kg, po administered for 14 days and measured on day 14; type: functional, organism-based; settings: time 14.0 day

Cytochrome P450 2D6, sequence (P10635 whole entry): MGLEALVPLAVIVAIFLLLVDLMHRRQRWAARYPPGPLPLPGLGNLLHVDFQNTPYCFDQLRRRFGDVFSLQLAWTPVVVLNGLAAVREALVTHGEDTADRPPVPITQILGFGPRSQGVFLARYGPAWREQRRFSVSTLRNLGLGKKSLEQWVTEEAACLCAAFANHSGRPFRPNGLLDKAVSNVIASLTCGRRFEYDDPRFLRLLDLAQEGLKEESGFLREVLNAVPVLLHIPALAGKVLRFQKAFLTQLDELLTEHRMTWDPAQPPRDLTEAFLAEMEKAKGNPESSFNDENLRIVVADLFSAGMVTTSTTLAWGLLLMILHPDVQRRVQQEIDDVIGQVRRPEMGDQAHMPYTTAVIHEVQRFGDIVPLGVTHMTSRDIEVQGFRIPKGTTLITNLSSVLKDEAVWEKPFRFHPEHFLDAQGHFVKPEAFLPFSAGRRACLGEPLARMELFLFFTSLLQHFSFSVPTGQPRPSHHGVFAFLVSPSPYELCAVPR

- IC50 [2]: > 100 µM
- IC50 [3]: > 100 µM
- clearance [5]: 3.48 mL/min/kg
- IC50 [7]: > 100 µM
- bioavailability [12]: 37.1%
- IC50 [13]: 0.02 µM
- half-life [15]: 3.89 h
- Vd [16]: 1.34 L/kg
- bioavailability [18]: 52.2%
- AUC/dose [19]: 5831 ng·h/mL
- IC50 [20]: 0.004 µM
- IC50 [21]: 36 µM
Structure (SMILES): Cc1cccc2c1c(=O)n(C[C@H]1CC[C@H](C(=O)O)CC1)c(=O)n2Cc1cccc(C(F)(F)F)c1C#N
- Activity [1]: Non-Toxic
- Activity [4]: Toxic
- Activity [6]: Non-Toxic
- Activity [8]: Non-Toxic
- Activity [9]: Toxic
- Activity [10]: Toxic
- Activity [11]: Non-Toxic
- Activity [14]: Toxic
- Activity [17]: Toxic
- Activity [22]: Active

Reference: ChEMBL document CHEMBL4706771, “Discovery of Orally Bioavailable Ligand Efficient Quinazolindiones as Potent and Selective Tankyrases Inhibitors” (ACS Med Chem Lett, 2021)
